Test results reported in patent EP0951284B1, “[…] DERIVATIVES” (priority 1996, dated 1998).
Structures can show the parent of a compound that is named as a salt.

Legend:
mice = experiment: Survival time of mice in hypobaric hypoxic episode; format: in vivo
Description: The model is based on that described in Nakanishi, M. et al. Life Sci. (1973) 13: 467; Oshiro, et al., J. Med. Chem. (1991) 34: 2004-2013; and US Patent 4,788,130.
A 12 liter desiccator (desiccator A) and a 2.5 liter desiccator (desiccator B) were separately connected to a vacuum pump. Desiccator B was disconnected and allowed to equilibrate with room air whilst desiccator A was evacuated to a pressure of 100mmHg. Four male ICR albino mice (22-28g) were placed in desiccator B. Desiccator B was then closed to room air and connected to desiccator A. The pressure inside desiccator B was monitored using a mercury manometer and at the point the pressure in desiccator B reached 200mmHg (usually within 14 seconds), the two desiccators were disconnected from the vacuum pump and the pump switched off. The survival time from the moment of induction of hypoxia to the time of cessation of respiration was recorded. for each mouse for a maximum of 15 minutes after which time room air was reintroduced to desiccator B. Survivors were monitored for signs of lethargy or vitality.
Effect of drug treatment was assessed as the percent of the survival time of the drug treated group with respect to the saline injected or vehicle injected control group. Control groups were run twice, before and after each experimental group and consisted of 8 mice in groups of 4 mice to ensure a constant residual volume of oxygen in all tests. The effect of each dose of test drug was determined in duplicate i.e. two groups of 4 mice.
Positive reference drugs were sodium pentobarbital at a dose of 40 mg/kg, and diazepam 10 mg/kg given 0.5h prior to hypoxia, physostigmine 0.2 and 0.4 mg/kg and neostigmine 0.2 mg/kg given sc 30 min before hypoxia. Methyl atropine 1 mg/kg was given sc. 10 min. before physostigmine.
The volume of injection was 0.2-0.3 mL per mouse (10 mL/kg). The initial dose was about one third of the reported LD50 for acetylcholine esterase inhibition. If no protection could be obtained, the dose was further increased to the nearest non-toxic dose. In case of protection, the dose was further reduced in an attempt to locate the "protective" dose range.

[1] = target: T1, Human erythrocyte acetylcholinesterase (Homo sapiens, UniProt P22303); experiment: In vitro measurement of acetylcholinesterase (AChE) inhibition (Ellman method); format: biochemical; conditions: at time of peak activity, incubation 15 to 60 minutes at 37°C
T1 construct: Human erythrocyte acetylcholinesterase (type XIII, Sigma Israel); purchased Sigma Israel type XIII; host or cells: human erythrocytes
T1 sequence (P22303 32-617 isoform P22303-2 limits assumed): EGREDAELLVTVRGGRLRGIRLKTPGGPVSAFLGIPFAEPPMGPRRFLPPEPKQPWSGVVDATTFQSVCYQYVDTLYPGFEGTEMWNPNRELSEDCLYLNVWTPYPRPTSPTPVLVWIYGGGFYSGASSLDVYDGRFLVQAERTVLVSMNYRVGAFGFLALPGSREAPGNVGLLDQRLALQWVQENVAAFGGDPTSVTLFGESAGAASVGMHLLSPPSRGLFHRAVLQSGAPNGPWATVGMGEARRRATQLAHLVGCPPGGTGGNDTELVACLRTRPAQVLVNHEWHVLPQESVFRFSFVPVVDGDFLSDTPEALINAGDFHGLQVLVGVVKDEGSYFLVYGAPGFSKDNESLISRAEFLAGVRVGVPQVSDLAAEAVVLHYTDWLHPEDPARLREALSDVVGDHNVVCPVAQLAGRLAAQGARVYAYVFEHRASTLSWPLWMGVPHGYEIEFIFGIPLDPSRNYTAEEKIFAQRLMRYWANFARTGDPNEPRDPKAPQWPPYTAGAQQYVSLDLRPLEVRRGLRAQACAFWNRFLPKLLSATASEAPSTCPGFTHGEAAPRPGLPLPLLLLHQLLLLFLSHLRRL
Protocol: Human erythrocyte acetylcholinesterase (type XIII, Sigma Israel), was prepared in a stock solution of 1U/ml, containing Triton (1%) and bovine serum albumin (0.05%) in phosphate buffer (pH 8). The enzyme (0.05U) was incubated with 3-5 different concentrations of test compound (in triplicate) for periods of from 15 to 60 minutes at 37°C. […] The percentage inhibition of AChE by each concentration of drug is calculated by comparison with that of enzyme in the absence of drug.

MAO-A = target: T2, MAO-A (Rattus norvegicus, UniProt P21396); experiment: Inhibition of MAO activity in vitro, rat brain homogenate, 5-HT substrate
T2 sequence (P21396 1-526): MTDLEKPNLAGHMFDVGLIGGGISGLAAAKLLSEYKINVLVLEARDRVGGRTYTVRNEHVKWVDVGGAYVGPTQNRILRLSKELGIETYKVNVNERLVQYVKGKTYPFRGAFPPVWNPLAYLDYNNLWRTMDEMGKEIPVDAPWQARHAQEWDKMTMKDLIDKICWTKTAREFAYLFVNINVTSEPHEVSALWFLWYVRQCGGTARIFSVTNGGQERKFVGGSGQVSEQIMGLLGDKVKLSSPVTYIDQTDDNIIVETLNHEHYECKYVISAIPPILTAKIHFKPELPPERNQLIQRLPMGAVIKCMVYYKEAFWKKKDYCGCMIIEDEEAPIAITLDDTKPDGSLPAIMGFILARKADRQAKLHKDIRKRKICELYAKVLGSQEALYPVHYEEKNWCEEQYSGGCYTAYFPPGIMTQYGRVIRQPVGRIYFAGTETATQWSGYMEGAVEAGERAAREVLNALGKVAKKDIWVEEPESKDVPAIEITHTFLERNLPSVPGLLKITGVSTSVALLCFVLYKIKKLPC
Protocol: The MAO enzyme source was a homogenate of rat brain in 0.3M sucrose, which was centrifuged at 600G for 15 minutes. The supernatant was diluted appropriately in 0.05M phosphate buffer, and pre-incubated with serial dilutions of test compounds for 20 minutes at 37°C. ^14C-Labeled substrates (2-phenylethylamine, hereinafter PEA; 5-hydroxytryptamine, hereinafter 5-HT) were then added, and the incubation continued for a further 20 minutes (PEA), or 30-45 minutes (5-HT). Substrate concentrations used were 50µM (PEA) and 1mM (5-HT). In the case of PEA, enzyme concentration was chosen so that not more than 10% of the substrate was metabolized during the course of the reaction. The deaminated products were extracted into toluene-ethyl acetate (1:1, v/v) containing 0.6% (w/v) 2,5-diphenyloxazole prior to determination by liquid scintillation counting. Radioactivity in the eluate indicates the production of neutral and acidic metabolites formed as a result of MAO activity. Activity of MAO in the sample was expressed as a percentage of control activity in the absence of inhibitors after subtraction of appropriate blank values The activity determined using PEA as substrate is referred to as MAO-B, and that determined using 5-HT as MAO-A.

whole brain AChE = target: T3, whole brain AChE (Mus musculus, UniProt P21836); experiment: Ex vivo measurement of brain AChE inhibition after sub-cutaneous administration; format: in vivo, mice; conditions: for Time to peak activity t / Time to return to 50% of peak t: AChE inhibition; for ED50: sc, sub-cutaneous, mouse whole brain, at peak of activity, read-out: AChE Inhibition Ex vivo ED50 (AC)
T3 construct: the brains rapidly removed (minus cerebellum), weighed and homogenized in 0.1M phosphate buffer pH 8.0; from tissue; host or cells: mouse brain (minus cerebellum) homogenate supernatant
T3 sequence (P21836 32-614): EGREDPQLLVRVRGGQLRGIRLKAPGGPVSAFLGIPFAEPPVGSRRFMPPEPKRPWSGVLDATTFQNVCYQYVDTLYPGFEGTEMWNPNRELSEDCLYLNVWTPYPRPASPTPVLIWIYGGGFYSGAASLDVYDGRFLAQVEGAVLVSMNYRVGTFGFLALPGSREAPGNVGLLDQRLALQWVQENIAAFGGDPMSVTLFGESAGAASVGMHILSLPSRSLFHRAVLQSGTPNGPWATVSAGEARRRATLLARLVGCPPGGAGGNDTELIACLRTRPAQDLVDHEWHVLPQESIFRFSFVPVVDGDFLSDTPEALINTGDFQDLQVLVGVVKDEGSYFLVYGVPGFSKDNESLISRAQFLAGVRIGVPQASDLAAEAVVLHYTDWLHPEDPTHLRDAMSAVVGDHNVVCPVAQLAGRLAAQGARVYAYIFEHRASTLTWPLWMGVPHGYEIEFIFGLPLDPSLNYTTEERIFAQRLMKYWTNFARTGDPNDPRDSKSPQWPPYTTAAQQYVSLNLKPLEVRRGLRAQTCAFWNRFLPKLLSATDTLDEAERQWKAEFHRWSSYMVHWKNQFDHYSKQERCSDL
Protocol: Test drugs or saline were administered sub-cutaneously to male mice (Sabra strain, 28-35g). At least 4-5 mice were used per dose and a minimum of 3 doses per drug were tested. The mice were sacrificed 15, 30, 60, 70, 90, 120 or 180 minutes after drug administration, the brains rapidly removed (minus cerebellum), weighed and homogenized in 0.1M phosphate buffer pH 8.0, containing Triton (1mg/100g tissue) and centrifuged to remove cell debris. Aliquots (25 µl) of the supernatant were then incubated with acetylthiocholine and DTNB. AChE activity measured as described above. The % inhibition of whole brain AChE by each dose of drug was calculated by comparison with enzyme activity from 3 saline treated control mice run at the same time.

[2] = 4.1 mg/kg sc, 60 min before hypoxia
[3] = 6.2 mg/kg sc, 60 min before hypoxia

Structure (SMILES) | Protection (% of control) (mice; 2 mg/kg sc, 30 min before hypoxia) | Protection (% of control) (mice; 2 mg/kg sc, 60 min before hypoxia) | Protection (% of control) (mice; 4.1 mg/kg sc, 30 min before hypoxia) | Protection (% of control) (mice; [2]) | Protection (% of control) (mice; [3]) | IC50 [1] [nM] | IC50 (MAO-A) [nM] | Time to peak activity t (whole brain AChE) [min] | Time to return to 50% of peak t (whole brain AChE) [min] | ED50 (whole brain AChE) [µmol/kg] | Protection (% of control) (mice; 15 mg/kg sc, 60 min before hypoxia) | Protection (% of control) (mice; 31 mg/kg sc, 60 min before hypoxia) | Protection (% of control) (mice; 62 mg/kg sc, 60 min before hypoxia) | Protection (% of control) (mice; 94 mg/kg sc, 60 min before hypoxia) | Protection (% of control) (mice; 4.5 mg/kg sc, 60 min before hypoxia) | Protection (% of control) (mice; 7 mg/kg sc, 60 min before hypoxia)
C#CCNCCc1cccc(OC(=O)N(C)C)c1 [Compound 11] | 302±212 % of control | 128±40 % of control | 501±201 % of control | 416±211 % of control | 331±168 % of control | 820 | 2500 | 15 | 70 | 3.2 |  |  |  |  |  | 
C#CCNC(C)Cc1cccc(OC(=O)N(C)C)c1 (stereo not drawn) [Compound 16] |  |  |  | 335±202 % of control | 324±155 % of control | 370 | 7000 | 15 | 70 | 2.3 | toxic |  |  |  |  | 
C#CCNC(C)Cc1cccc(OC(=O)N(C)CC)c1 (stereo not drawn) [Compound 17, 3-(N-Me,N-Etcarbamyloxy)α-methyl, N-propargyl phenethylamine.HCl] |  |  |  |  |  | 36000 | 12000 | 30 to 60 | 120 | 64 |  | 149±44 % of control | 419±122 % of control | 281±158 % of control |  | 
C#CCN(C)CCc1cccc(OC(=O)N(C)C)c1 [Compound 12] |  |  |  |  |  | 880 | 380 | 15 to 30 | 120 | 2.8 |  |  |  |  | 97±36 % of control | 217±120 % of control
